Columns and labels:
[1] = system: Mycobacterium smegmatis 607; assay: Antimicrobial potency, cylinder agar plate method, Bleomycin A2 (copper-free base) assumed as 1000 U/mg; assay type: cell-based; conditions: Mycobacterium smegmatis 607
Protocol: 1. Antimicrobial potency was assayed by a cylinder agar plate method on the basis of Bleomycin A2 (copper-free base) assumed as 1000 U/mg, using Mycobacterium smegmatis 607 as test organism.
^(1) Assayed by a cylinder-agar plate method using Mycobacterium
smegmatis 607 as test organism, the potency of bleomycin A2
(copper-free base) being assumed as 1000 unit/mg.
The resulting compound has 0.65 of Rf value of the Silica gel thin layer chromatograph (CH3 OH: 10 %-CH3 COONH4 : 10 %-NH4 OH = 10 : 9 : 1) and 0.53 of Rf value of the Avicel thin layer chromatography (n-C3 H7 OH : pyridine : CH3 COOH : H2 O = 15 : 10 : 3 : 12) which are same with those of the 3-morpholinopropylaminobleomycin. The antimicrobial activity to Mycobacterium smegmatis 607 by the cylinder-agar plate method (the standard copper-free bleomycin A2 free base 1,000 U/mg) was 605 U/mg.

[2] = system: Ehrlich ascites carcinoma; assay: Antitumor activity and toxicity in ICR-SLC mouse inoculated with Ehrlich ascites carcinoma, i.p. for ten consecutive days; assay type: in vivo; conditions: for Chemotherapeutic index: Table 5, ten consecutive days into peritoneal cavity, evaluated 50 days after beginning
Protocol: The phleomycin was administered for ten consecutive days into peritoneal cavity of a ICR-SLC mouse, into which Ehrlich ascites carcinoma had been inoculated. Fifty days after the beginning of the experiment, measurements were made for (1) the number of dead mouse owing to toxicity, (2) the number of survived mouse, (3) mean survival period in 50 days, and (4) the ratio of mean survival period to that of reference mouse multiplied by 100. The chemotherapeutic index was calculated from the values of ED50 (50 % effective dose) and LD50 (50 % lethal dose) which were obtained as given below.
ED50 value: The maximum dose level within the range of logevity ratio of 100 to 200.
LD50 value: Calculated according to Behrens-Karber method from the data of (1) and (2).
^(2) A bleomycin was administered for ten consecutive days into
peritoneal cavity of a ICR-SLC mouse, where Ehrlich ascites carcinoma had
been inoculated, and 50 days after the beginning of experiment the […]

[3] = phleomycins of Table 1, Bleomycin A2 (copper-free base) = 1000 U/mg
[4] = 0.19 mg/kg/day for 10 days i.p.
[5] = 0.39 mg/kg/day for 10 days i.p.
[6] = 0.78 mg/kg/day for 10 days i.p.
[7] = 1.56 mg/kg/day for 10 days i.p.
[8] = 3.12 mg/kg/day for 10 days i.p.
[9] = 6.25 mg/kg/day for 10 days i.p.
[10] = 12.5 mg/kg/day for 10 days i.p.
[11] = 25.0 mg/kg/day for 10 days i.p.
[12] = bleomycins of Table 5, bleomycin A2 (copper-free base) = 1000 unit/mg

## 3-N-Propenylaminopropylaminophleomycin
[1]; [3]
  Antimicrobial potency: 2100 unit/mg

## 3-Morpholinopropylaminophleomycin
[2]; [4]
  Average longevity (mean survival period in 50 days): 20.6
  Longevity ratio (mean survival period to that of reference mouse multiplied by 100): 167
  Toxicity, number dead/total number: 0/5
  Viability (after 50 days), number survived/total number: 0/5
[2]; [5]
  Average longevity (mean survival period in 50 days): 16.2
  Longevity ratio (mean survival period to that of reference mouse multiplied by 100): 133
  Toxicity, number dead/total number: 0/5
  Viability (after 50 days), number survived/total number: 0/5
[2]; [6]
  Average longevity (mean survival period in 50 days): 22.8
  Longevity ratio (mean survival period to that of reference mouse multiplied by 100): 187
  Toxicity, number dead/total number: 0/5
  Viability (after 50 days), number survived/total number: 0/5
[2]; [7]
  Average longevity (mean survival period in 50 days): 35.0
  Longevity ratio (mean survival period to that of reference mouse multiplied by 100): 287
  Toxicity, number dead/total number: 0/5
  Viability (after 50 days), number survived/total number: 2/5
[2]; [8]
  Average longevity (mean survival period in 50 days): 49.2
  Longevity ratio (mean survival period to that of reference mouse multiplied by 100): 403
  Toxicity, number dead/total number: 0/5
  Viability (after 50 days), number survived/total number: 5/5
[2]; [9]
  Average longevity (mean survival period in 50 days): 50.0
  Longevity ratio (mean survival period to that of reference mouse multiplied by 100): 410
  Toxicity, number dead/total number: 0/5
  Viability (after 50 days), number survived/total number: 5/5
[2]; [10]
  Average longevity (mean survival period in 50 days): 39.2
  Longevity ratio (mean survival period to that of reference mouse multiplied by 100): 321
  Toxicity, number dead/total number: 2/5
  Viability (after 50 days), number survived/total number: 3/5
[2]; [11]
  Average longevity (mean survival period in 50 days): 26.2
  Longevity ratio (mean survival period to that of reference mouse multiplied by 100): 215
  Toxicity, number dead/total number: 5/5
  Viability (after 50 days), number survived/total number: 0/5
[2]; Tables 2 to 4, i.p., for 10 days, 72000 min
  Chemotherapeutic index (LD50/ED50): 19.2
[2]; as shown in Tables 2 and 3
  Prolongation effect on the survival period of ICR-SLC mouse inoculated with Ehrlich ascites carcinoma: distinct prolongation effect
[2]; i.p., for 10 days, Behrens-Karber method, 72000 min
  LD50 (50 % lethal dose): 15.0 mg/kg/day
[2]; i.p., for 10 days, maximum dose level within the range of longevity ratio of 100 to 200, 72000 min
  ED50 (50 % effective dose): 0.78 mg/kg/day
[2]; same terminal amine Y
  Chemotherapeutic index compared with 3-morpholinopropylaminobleomycin: practically same order
[1]; [3]
  Antimicrobial potency: 474 unit/mg

## 3-N-n-Butylaminopropylaminophleomycin
[1]; [3]
  Antimicrobial potency: 3535 unit/mg

## 2-N,N-Diethylaminoethylaminophleomycin
[1]; [3]
  Antimicrobial potency: 882 unit/mg

## 3-[3-N-(1-phenylethyl)aminopropylamino]propylaminophleomycin
[1]; [3]
  Antimicrobial potency: 7208 unit/mg

## 3-N,N-Dimethylaminopropylaminobleomycin
[2]
  Chemotherapeutic index: 20.4
[1]; [12]
  Antimicrobial potency: 806 Unit/mg

## 3-N-(1-Phenylethyl)aminopropylaminobleomycin
[2]
  Chemotherapeutic index: 59.2
[1]; [12]
  Antimicrobial potency: 5320 Unit/mg

## 3-(N,N,N-Trimethylamino)propylaminophleomycin chloride
[1]; [3]
  Antimicrobial potency: 506 unit/mg

## 3-(3-N-Benzylaminopropylamino)propylaminobleomycin
[2]
  Chemotherapeutic index: 24.0
[1]; [12]
  Antimicrobial potency: 6000 Unit/mg

## 3-N-Cyclohexylaminopropylaminophleomycin
[1]; [3]
  Antimicrobial potency: 4284 unit/mg

## 3-(3-Piperidinopropylamino)propylaminophleomycin
[1]; [3]
  Antimicrobial potency: 2864 unit/mg

## 3-(3-N-n-Butylaminopropylamino)propylaminobleomycin
[2]
  Chemotherapeutic index: 59.2
[1]; [12]
  Antimicrobial potency: 5840 Unit/mg

## 3-(3-N-Benzylaminopropylamino)propylaminophleomycin
[1]; [3]
  Antimicrobial potency: 6710 unit/mg

## 3-N-(3,3-Dichloropropyl)aminopropylaminophleomycin
[1]; [3]
  Antimicrobial potency: 3120 unit/mg

## 3-(3-N,N-Dimethylaminopropylamino)propylaminobleomycin
[2]
  Chemotherapeutic index: 54
[1]; [12]
  Antimicrobial potency: 1670 Unit/mg

## 3-(3-N-Cyclohexylaminopropylamino)propylaminobleomycin
[2]
  Chemotherapeutic index: 39.5
[1]; [12]
  Antimicrobial potency: 12335 Unit/mg

## 3-N-Cyclohexylaminopropylaminobleomycin
[2]
  Chemotherapeutic index: 16.3
[1]; [12]
  Antimicrobial potency: 6560 Unit/mg

## 3-(3-Pyrrolidinopropylamino)propylaminobleomycin
[2]
  Chemotherapeutic index: 26.4
[1]; [12]
  Antimicrobial potency: 3286 Unit/mg

## 3-Pyrrolidinopropylaminophleomycin
[1]; [3]
  Antimicrobial potency: 853 unit/mg

## 3-(N,N-Dimethylaminopropylamino)propylaminophleomycin
[1]; [3]
  Antimicrobial potency: 1336 unit/mg

## 2-(Imidazol-4-yl)ethylaminophleomycin
[1]; [3]
  Antimicrobial potency: 678 unit/mg

## 3-N,N-Diethylaminopropylaminophleomycin
[1]; [3]
  Antimicrobial potency: 829 unit/mg

## 2-N,N-Dimethylaminoethylaminobleomycin
[2]
  Chemotherapeutic index: 7.8
[1]; [12]
  Antimicrobial potency: 897 Unit/mg

## 3-N-(1-Phenylethyl)aminopropylaminophleomycin
[1]; [3]
  Antimicrobial potency: 4030 unit/mg

## 3-N,N-Dimethylaminopropylaminophleomycin
[1]; [3]
  Antimicrobial potency: 648 unit/mg

## 3-N,N-Diethylaminopropylaminobleomycin
[2]
  Chemotherapeutic index: 34.5
[1]; [12]
  Antimicrobial potency: 1036 Unit/mg

## Cc1c(N)nc(C(CC(N)=O)NCC(N)C(N)=O)nc1C(=O)NC(C(=O)NC(C)C(O)C(C)C(=O)NC(C(=O)NCCc1nc(-c2nc(C(=O)NCCC[S+](C)C)cs2)cs1)C(C)O)C(OC1OC(CO)C(O)C(O)C1OC1OC(CO)C(O)C(OC(N)=O)C1O)c1cnc[nH]1 (stereo not shown) [3-S,S-Dimethylmercaptopropylaminobleomycin]
[2]
  Chemotherapeutic index: 12.0
[1]; [12]
  Antimicrobial potency: 920 Unit/mg

## 3-(3-Pyrrolidinopropylamino)propylaminophleomycin
[1]; [3]
  Antimicrobial potency: 2051 unit/mg

## 3-Piperidinopropylaminophleomycin
[1]; [3]
  Antimicrobial potency: 1006 unit/mg

## 3-Piperazinopropylaminophleomycin
[1]; [3]
  Antimicrobial potency: 581 unit/mg

## 3-(3-N-n-Butylaminopropylamino)propylaminophleomycin
[1]; [3]
  Antimicrobial potency: 4672 unit/mg

## 3-Guanidinopropylaminophleomycin
[1]; [3]
  Antimicrobial potency: 2300 unit/mg

## 2-N,N-Dimethylaminoethylaminophleomycin
[1]; [3]
  Antimicrobial potency: 718 unit/mg

## 3-N-Benzylaminopropylaminophleomycin
[1]; [3]
  Antimicrobial potency: 3373 unit/mg

## 3-(3-Morpholinopropylamino)propylaminophleomycin
[1]; [3]
  Antimicrobial potency: 961 unit/mg

## 3-N-Methylaminopropylaminophleomycin
[1]; [3]
  Antimicrobial potency: 688 unit/mg

## 3-N-tert-Butylaminopropylaminophleomycin
[1]; [3]
  Antimicrobial potency: 3520 unit/mg

## 3-N-(3-Hydroxypropyl)aminopropylaminophleomycin
[1]; [3]
  Antimicrobial potency: 845 unit/mg

## 3-Amidinopropylaminophleomycin
[1]; [3]
  Antimicrobial potency: 2500 unit/mg

## 3-(3-N-Cyclohexylaminopropylamino)propylaminophleomycin
[1]; [3]
  Antimicrobial potency: 8570 unit/mg

Reference: patent publication US3984390A, “Novel process for producing phleomycin group antibiotics” (Zaidan Hojin Biseibutsu Kagaku Kenkyu Kai, priority 1972, dated 1976)
